From PMC8333062, “Chemical tools for epichaperome-mediated interactome dysfunctions of the central nervous system” (Nature Communications, 2021)
Several values for one entry are separate records, joined by “and”; a condition that tells them apart may be missing. Identical values can stand only once.

What was measured:
[1] = LC/MS-MS tissue concentration 48 h after 75 mg kg-1 ip; type: in vivo; settings: mouse, MDA-MB-468 tumor, intraperitoneal, 75 mg kg^−1, 48 h post 75mg/kg ip, mouse 1-4; read-out: [PU-HZ151] MDA-MB-468 TUMOR
[2] = tested on: MDA-MB-468 tumor and organs; assay: as above; type: in vivo; settings: 48 h post 75mg/kg ip, mouse 1-4; listed as PU-HZ151
GBM#5 = assay: Survival studies in mice; type: in vivo, mouse; settings: 50 mg kg^−1 iv, three times per week, n=7
Description: (§1) Survival of the animals was followed until the mice became morbid (physical and/or neurological symptoms), at which point, the animals were killed. Typically, mice became symptomatic several weeks to a few months after GSC implantation. Log-rank tests were used to compare the distribution of time to killing across groups and Kaplan–Meier curves were produced.

GBM#7 = assay: Survival studies in mice; type: in vivo, mouse; settings: 50 mg kg^−1 iv, three times per week, n=7
Description: as §1

GBM#8 = assay: Survival studies in mice; type: in vivo, mouse; settings: 50 mg kg^−1 iv, three times per week, n=7
Description: as §1

MDA-MB-468 cells = assay: Cell viability, ATP levels 72 h; type: cell-based, human; design: key to Cell viability (ATP levels): ATP levels as % of vehicle (DMSO) control; settings: replicates; for Cell viability (ATP levels): MDA-MB-468
Procedure: Supplementary Fig. 15: PU-HZ151 activity in cells is unaffected by Pgp overexpression. a Two Pgp-positive cells lines, Kasumi-1 and HepG2, were tested for epichaperome-positivity. β-Actin, loading control. b ATP levels in cell treated for 72 h with 0 to 1 µM PU-HZ151. Data are presented as means ±s.e.m. of three experimental repeats. Control, vehicle (DMSO) treated cells. c Western blot analysis of aberrant signaling pathway inhibition by […]
(also on this page, place not known: MDA‐MB-468ASPC1Kasumi Hep G2 ATP levels %Control MDA‐MB-468ASPC1Kasumi 1Hep G2 β-Actin HSP90α Native-PAGE SDS PAGE 100- β-Actin 1)

[3] = LC-MS/MS profile of brain and tumor extracts; settings: 1 h post-intravenous injection

Question: Which results are given for `CC(C)(C)CNCCn1c(Sc2cc3c(cc2I)OCO3)nc2c(N)ncnc21` [Compound 85]?
Answer: concentration at 48 h [1]: 1670 nM; [PU-HZ151] Liver [2]: 0.002 µM; [PU-HZ151] MDA-MB-468 TUMOR [2]: 1.786 µM and 1.509 µM and 1.067 µM; survival vs vehicle, log-rank P (GBM#5): 0.86; survival vs vehicle, log-rank P (GBM#7): 0.0061; survival vs vehicle, log-rank P (GBM#8): 0.21; viability at 0.00195312 µM (MDA-MB-468 cells; Homo sapiens, MDA-MB-468, MDA-MB-468, 1.95312 nM): 97.8%; viability at 0.00390625 µM (MDA-MB-468 cells; Homo sapiens, MDA-MB-468, MDA-MB-468, 3.90625 nM): 107%; viability at 0.015625 µM (MDA-MB-468 cells; Homo sapiens, MDA-MB-468, MDA-MB-468, 15.625 nM): 107%; viability at 0.03125 µM (MDA-MB-468 cells; Homo sapiens, MDA-MB-468, MDA-MB-468, 31.25 nM): 34.4%; viability at 0.125 µM (MDA-MB-468 cells; Homo sapiens, MDA-MB-468, MDA-MB-468, 125 nM): 7.51%; viability at 0.5 µM (MDA-MB-468 cells; Homo sapiens, MDA-MB-468, MDA-MB-468, 500 nM): 13.5%; Cell viability (ATP levels) (MDA-MB-468 cells; 1.95312 nM, listed as PU-HZ151, 0.00195312 µM): 110.592 and 103.375; Cell viability (ATP levels) (MDA-MB-468 cells; 3.90625 nM, listed as PU-HZ151, 0.00390625 µM): 119.425 and 107.367; Cell viability (ATP levels) (MDA-MB-468 cells; 7.8125 nM, listed as PU-HZ151, 0.0078125 µM): 108.225 and 84.5333 and 99.0667; Cell viability (ATP levels) (MDA-MB-468 cells; 15.625 nM, listed as PU-HZ151, 0.015625 µM): 116.083 and 108.992; Cell viability (ATP levels) (MDA-MB-468 cells; 31.25 nM, listed as PU-HZ151, 0.03125 µM): 42.5333 and 26.2083; Cell viability (ATP levels) (MDA-MB-468 cells; 62.5 nM, listed as PU-HZ151, 0.0625 µM): 4.317 and 13.7833 and 10.55; Cell viability (ATP levels) (MDA-MB-468 cells; 125 nM, listed as PU-HZ151, 0.125 µM): 8.242 and 5.217; Cell viability (ATP levels) (MDA-MB-468 cells; 500 nM, listed as PU-HZ151, 0.5 µM): 14.6417 and 13.2667; Cell viability (ATP levels) (MDA-MB-468 cells; 1000 nM, listed as PU-HZ151, 1 µM): 13.625 and 13.2667 and 6.525; species detected in lesions and brain [3]: only the intact PU-HZ151 molecule
